From ChEMBL document CHEMBL6074631, “Design, synthesis, and evaluation of pyranochromene derivatives as membrane targeting antibacterials against Gram-positive bacteria” (Bioorg Med Chem Lett, 2024)
Converted amounts (≈) assume the structure as drawn.

Tests used:
Type in all cases: functional
Staphylococcus aureus [1] = test: Antibacterial activity against Staphylococcus aureus ATCC31007 assessed as reduction in bacterial growth by broth microdilution assay
Enterococcus faecalis = test: Antibacterial activity against penicillin-susceptible Enterococcus faecalis ATCC29212 assessed as reduction in bacterial growth by broth microdilution assay
Acinetobacter baumannii = test: Antibacterial activity against Acinetobacter baumannii ATCC19606 assessed as reduction in bacterial growth by broth microdilution assay
Staphylococcus aureus [2] = test: Antibacterial activity against Staphylococcus aureus ATCC25923 assessed as reduction in bacterial growth by broth microdilution assay
Escherichia coli = test: Antibacterial activity against Escherichia coli ATCC25922 assessed as reduction in bacterial growth by broth microdilution assay
[3] = tested on: Staphylococcus epidermidis; test: Antibacterial activity against vancomycin-susceptible Staphylococcus epidermidis ATCC12228 assessed as reduction in bacterial growth by broth microdilution assay
Pseudomonas aeruginosa = test: Antibacterial activity against penicillin-susceptible Pseudomonas aeruginosa ATCC27853 assessed as reduction in bacterial growth by broth microdilution assay
Staphylococcus aureus [4] = test: Antibacterial activity against […] Staphylococcus aureus ATCC43300 assessed as reduction in bacterial growth by broth microdilution assay
Klebsiella pneumoniae = test: Antibacterial activity against erythromycin-susceptible Klebsiella pneumoniae ATCC10031 assessed as reduction in bacterial growth by broth microdilution assay
Bacillus subtilis = test: Antibacterial activity against […] Bacillus subtilis ATCC9372 assessed as reduction in bacterial growth by broth microdilution assay

SMILES | MIC (Staphylococcus aureus [1]) | MIC (Enterococcus faecalis) | MIC (Acinetobacter baumannii) | MIC (Staphylococcus aureus [2]) | MIC (Escherichia coli) | MIC [3] | MIC (Pseudomonas aeruginosa) | MIC (Staphylococcus aureus [4]) | MIC (Klebsiella pneumoniae) | MIC (Bacillus subtilis)
CC(=O)c1c(OCC(=O)NCCCN2CCCC2)c2c(c3c1OC(C)(CCC=C(C)C)C=C3)OC(C)(CCC=C(C)C)C=C2 (stereo unspecified) | 4 µg/mL (≈ 6.61 µM) | 8 µg/mL (≈ 13.2 µM) | 128 µg/mL (≈ 212 µM) | 4 µg/mL (≈ 6.61 µM) | > 128 µg/mL | 8 µg/mL (≈ 13.2 µM) | > 128 µg/mL | 4 µg/mL (≈ 6.61 µM) | > 128 µg/mL | 16 µg/mL (≈ 26.5 µM)
COc1c2c(c3c(c1C(=O)/C=C/c1ccc(OCCCN4CCOCC4)cc1)OC(C)(CCC=C(C)C)C=C3)OC(C)(CCC=C(C)C)C=C2 (stereo unspecified) | > 128 µg/mL | > 128 µg/mL | > 128 µg/mL | > 128 µg/mL | > 128 µg/mL | > 128 µg/mL | > 128 µg/mL | > 128 µg/mL | > 128 µg/mL | > 128 µg/mL
CC[N+](CC)(CC)CCCOc1ccc(/C=C/C(=O)c2c(OC)c3c(c4c2OC(C)(CCC=C(C)C)C=C4)OC(C)(CCC=C(C)C)C=C3)cc1 (stereo unspecified) | 64 µg/mL | 32 µg/mL | > 128 µg/mL | 64 µg/mL | > 128 µg/mL | 4 µg/mL | > 128 µg/mL | > 128 µg/mL | > 128 µg/mL | 64 µg/mL
CCN(CC)CCCNC(=O)COc1c2c(c3c(c1C(C)=O)OC(C)(CCC=C(C)C)C=C3)OC(C)(CCC=C(C)C)C=C2 (stereo unspecified) | 4 µg/mL (≈ 6.59 µM) | 2 µg/mL (≈ 3.3 µM) | > 128 µg/mL | 4 µg/mL (≈ 6.59 µM) | > 128 µg/mL | 2 µg/mL (≈ 3.3 µM) | 128 µg/mL (≈ 211 µM) | 4 µg/mL (≈ 6.59 µM) | > 128 µg/mL | 2 µg/mL (≈ 3.3 µM)
CNCCN(C)C(=O)COc1c2c(c3c(c1C(C)=O)OC(C)(CCC=C(C)C)C=C3)OC(C)(CCC=C(C)C)C=C2 (stereo unspecified) | 4 µg/mL (≈ 7.08 µM) | 8 µg/mL (≈ 14.2 µM) | 128 µg/mL (≈ 227 µM) | 4 µg/mL (≈ 7.08 µM) | > 128 µg/mL | 4 µg/mL (≈ 7.08 µM) | 128 µg/mL (≈ 227 µM) | 4 µg/mL (≈ 7.08 µM) | 128 µg/mL (≈ 227 µM) | 16 µg/mL (≈ 28.3 µM)
CCCCN(CCCC)CCCNC(=O)COc1c2c(c3c(c1C(C)=O)OC(C)(CCC=C(C)C)C=C3)OC(C)(CCC=C(C)C)C=C2 (stereo unspecified) | 4 µg/mL (≈ 6.03 µM) | 4 µg/mL (≈ 6.03 µM) | > 128 µg/mL | 4 µg/mL (≈ 6.03 µM) | > 128 µg/mL | 4 µg/mL (≈ 6.03 µM) | > 128 µg/mL | 8 µg/mL (≈ 12.1 µM) | > 128 µg/mL | 8 µg/mL (≈ 12.1 µM)
CN[C@H](CC(C)C)C(=O)N[C@H]1C(=O)N[C@@H](CC(N)=O)C(=O)N[C@H]2C(=O)N[C@H]3C(=O)N[C@H](C(=O)N[C@H](C(=O)O)c4cc(O)cc(O)c4-c4cc3ccc4O)[C@H](O)c3ccc(c(Cl)c3)Oc3cc2cc(c3O[C@@H]2O[C@H](CO)[C@@H](O)[C@H](O)[C@H]2O[C@H]2C[C@](C)(N)[C@H](O)[C@H](C)O2)Oc2ccc(cc2Cl)[C@H]1O [VANCOMYCIN] |  | 2 µg/mL (≈ 1.38 µM) | 16 µg/mL (≈ 11 µM) |  | 128 µg/mL (≈ 88.3 µM) |  | > 128 µg/mL |  | 128 µg/mL (≈ 88.3 µM) | 0.5 µg/mL (≈ 0.345 µM)
COc1c2c(c3c(c1C(=O)/C=C/c1ccc(OCCCN(C)CCCN(C)C)cc1)OC(C)(CCC=C(C)C)C=C3)OC(C)(CCC=C(C)C)C=C2 (stereo unspecified) | > 128 µg/mL | 16 µg/mL (≈ 22.5 µM) | > 128 µg/mL | > 128 µg/mL | > 128 µg/mL | 2 µg/mL (≈ 2.81 µM) | > 128 µg/mL | > 128 µg/mL | > 128 µg/mL | > 128 µg/mL
COc1c2c(c3c(c1C(=O)/C=C/c1ccc(OCCCNCCCN4CCN(C)CC4)cc1)OC(C)(CCC=C(C)C)C=C3)OC(C)(CCC=C(C)C)C=C2 (stereo unspecified) | 4 µg/mL (≈ 5.32 µM) | 8 µg/mL (≈ 10.6 µM) | > 128 µg/mL | 4 µg/mL (≈ 5.32 µM) | > 128 µg/mL | 4 µg/mL (≈ 5.32 µM) | > 128 µg/mL | 8 µg/mL (≈ 10.6 µM) | > 128 µg/mL | 4 µg/mL (≈ 5.32 µM)
COc1c2c(c3c(c1C(=O)/C=C/c1ccc(OCCCN4CCSCC4)cc1)OC(C)(CCC=C(C)C)C=C3)OC(C)(CCC=C(C)C)C=C2 (stereo unspecified) | > 128 µg/mL | > 128 µg/mL | > 128 µg/mL | > 128 µg/mL | > 128 µg/mL | > 128 µg/mL | > 128 µg/mL | > 128 µg/mL | > 128 µg/mL | > 128 µg/mL
